Results from patent US6949354B2, “Methods for screening compounds active on neurons” (Trophos, priority 1999, dated 2005).

B1: BDNF: neurotrophic factor used as a positive control (protein, UniProt P23560 19-247, looked up)
Neurotrophic factor BDNF …: APMKEANIRGQGGLAYPGVRTHGTLESVNGPKAGSRGLTSLADTFEHVIEELLDEDQKVRPNEENNKDADLYTSRVMLSSQVPLEPPLLFLLEEYKNYLDAANMSMRVRRHSDPARRGELSVCDSISEWVTAADKKTAVDMSGGTVTVLEKVPVSKGQLKQYFYETKCNPMGYTKEGCRGIDKRHWNSQCRTTQSYVRALTMDSKKRIGWRFIRIDTSCVCTLTIKRGR

Legend:
[1] = tested on: Rat motor neurons; assay: Motor neuron survival on trophic factor withdrawal; type: cell-based; settings: cultured 3 days in Neurobasal medium without neurotrophic factors, 4-well plates; FIG. 1
Experimental: Spinal cords are dissected from day E14.5 sprague Dawley rat embryos (Camu et al., (1993) In: “Immunoselection Strategies for Neural Cell Culture”, Neuroprotocols: A companion to Methods in Neurosciences 2, 191-199). The dorsal part of the spinal cord is cut away, and the meninges removed. Each cord is cut into pieces using a scalpel and placed into 1 ml modified F10 medium (Ca2+, Mg2+-free, no glutamine or phenol red), with 0.025% trypsin, at 37° C. for 10 minutes. The fragments are transferred to 1 ml L15 containing 0.4% BSA and 0.1 mg/ml Dnase, and triturated using a blue (1 ml) tip. Cells are then spun through a BSA (4% w/v) cushion for 5 minutes at 480 g. The small cells are removed using a metrizamide (Serva) density gradient: 6.5% (w/v) metrizamide is placed under the cell suspension and centrifuged for 15 minutes at 860 g. The large motor neurons stay at the interface between the medium and the metrizamide, while the small cells (including non-neuronal cells) are pelleted. […]
Rat motor neurons were isolated and purified as described in example 1 and cultured for 3 days in Neurobasal medium without neurotrophic factors (i.e. trophic factor withdrawal) in 4-well plates in the presence or absence of the test molecule. […] Motor neurons were grown for 3 days in vitro, then domoic acid at various concentrations was added and the number of surviving motor neurons was counted after 26 hours. […]

[2] = tested on: motor neurons; assay: Induction of motor neuron cell death by glutamate toxicity (domoic acid); type: cell-based, rat; settings: domoic acid at 10^-5 M, after 24 hours
Experimental: Domoic acid at 10^−5M leads to loss of more than 50% of motor neurons after 24 hours (see is example), with even more dramatic effects after longer incubations.
Rat motor neurons were isolated and purified as described in example 1 and cultured for 3 days in Neurobasal medium without neurotrophic factors (i.e. trophic factor withdrawal) in 4-well plates in the presence or absence of the test molecule. The neurotrophic factor BDNF is used as a positive control for all experiments. […] Motor neurons were grown for 3 days in vitro, then domoic acid at various concentrations was added and the number of surviving motor neurons was counted after 26 hours.

[3] = tested on: isolated neurons; assay: Low-density isolated neuron cultures (384-well plate) under growth factor privation, individual cell count; type: cell-based; settings: growth factor privation to induce apoptosis, exclusion threshold below 300 μm^2, untreated well 18 neurons, FIG. 3A
Text: FIG. 3 represents two 9 mm^2-wells of a microtitration plate (384 wells) containing low-density cultures of isolated neurons according to this invention. The cultures were subjected to growth factor privation to induce apoptosis, and treated or not with BDNF. […] The exclusion threshold is below 300 μm^2.

Row | Molecule | survival of motor neurons on trophic factor withdrawal [1] | further results
1 | (4-carboxyphenyloxyamino) butanoic acid | no effect on motor neuron survival | –
2 | CCCC(CCC)C(=O)[O-].[Na+] [sodium valproate] | enhances survival of motor neurons | –
3 | C/C(=C/C=C/[C@@H](C)C(=O)O)[C@H]1CN[C@H](C(=O)O)[C@H]1CC(=O)O [Domoic acid] | – | loss of motor neurons [2]: more than 50%
4 | B1 | – | neurons present per 9 mm^2 well [3]: 73 neurons
